Each block holds one compound with its values, some of them ahead of it.
Legend:
[1] = tested on: DNA duplex 5′-CGCGAAAAACGCG-3′; experiment: FIRMS binding force of groove-binding drugs with DNA; conditions: for binding force of DNA with drug: DNA alone 59 pN
Method: (§1) Some embodiments of the method of using a differential binding force to quantify the efficiency of a drug molecule to a receptor comprises a process wherein one strand of the DNA duplex is immobilized on a surface, while the other is labeled with a magnetic particle. The binding forces of the DNA duplex are measured in the absence and presence of the drug molecule, denoted as F1 and F2, respectively. The differential binding force, F2-F1, characterizes the influence of the drug-DNA binding on the stability of the DNA. The binding forces are obtained using the FIRMS technique, depicted in FIG. 1.
The method of differential binding force can also be used to quantify a different binding mode of DNA-drug interactions. We chose two groove-binding drugs, netropsin and berenil. The groove-binding interaction is different from the intercalation interaction of daunomycin and THP. Shown in FIG. 6 are the binding forces of DNA alone, DNA with netropsin, and DNA with berenil, with values of 59, 63, and 73 pN, respectively. The DNA sequence was 5′-CGCGAAAAACGCG-3′ (SEQ. 5). The binding forces yield differential binding force of 4 pN for netropsin and 14 pN for berenil.

[2] = tested on: DNA1 (5′-CCC AAT CGA CCC-3′ with complementary strand 5′-GGG TCG ATT GGG-3′); experiment: FIRMS binding force of drug with DNA1
Method: as §1
(§2) Magnetic particles M280 were used to label one strand of the DNA duplexes as previously characterized.^16] After initial magnetization by a permanent magnet, the magnetic signal of the particles were detected by an atomic magnetometer, with a sensitivity of 200 fT/(Hz)^1/2. Sample wells (4×2×1 mm^3) with a biotin-coated bottom surface were used to immobilize the other strand of the DNA duplexes. […]
(§3) DNA Intercalation is widely considered as its binding mode, although minor groove binding has also been discussed,^[24] however, the specificity has previously not been quantified by binding strength. […] As a control experiment the differential binding force of daunomycin with a different DNA duplex, DNA2, with sequence 5′-CCC GGG TTT CCC-3′ and its complementary strand was measured.

[3] = tested on: DNA2 (5′-CCC GGG TTT CCC-3′ and its complementary strand); experiment: FIRMS binding force of drug with DNA2
Method: as §1, §2, §3

[4] = tested on: DNA duplex 5′-CCC GGG TTT CCC-3′ / 3′-GGG CCC AAT GGG-5′ containing a T-T pair; experiment: FIRMS binding force of the T-Hg-T system (DNA duplex with T-T pair)
Method: as §1
Magnetic particles M280 were used to label one strand of the DNA duplexes as previously characterized.^16] After initial magnetization by a permanent magnet, the magnetic signal of the particles were detected by an atomic magnetometer, with a sensitivity of 200 fT/(Hz)^1/2. Sample wells (4×2×1 mm^3) with a biotin-coated bottom surface were used to immobilize the other strand of the DNA duplexes. Mechanical forces were applied using a centrifuge (Eppendorf 5417R).
The sample well, with dimensions of 4×2×1 mm^3 (L×W×D), was coated with biotin on the bottom surface. An aqueous solution of 0.625 mg/mL streptavidin was loaded into the sample well and incubated for 1 hr. Then the sample well was rinsed three times with a buffer solution as described below. […]

SMILES: Cn1cc(NC(=O)c2cc(NC(=O)CN=C(N)N)cn2C)cc1C(=O)NCCC(=N)N [netropsin]
- differential binding force (F2-F1) [1]: 4 pN
- binding force of DNA with drug [1]: 63 pN

SMILES: COc1cccc2c1C(=O)c1c(O)c3c(c(O)c1C2=O)C[C@@](O)(C(C)=O)C[C@@H]3O[C@H]1C[C@H](N)[C@H](O)[C@H](C)O1 [daunomycin]
- differential binding force (F2-F1) [2]: 12 pN
- binding force of DNA1 with drug ([2]; DNA alone 45 pN (daunomycin, TE buffer) or 44 pN (THP, BPES buffer)): 57 pN
- differential binding force (F2-F1) [3]: no significant force difference
- binding force of DNA2 with drug ([3]; DNA alone 51 pN): 52 pN

SMILES: [Hg+2] [Hg]
- binding force of the DNA duplex upon binding ([4]; DNA alone 40 pN, HEPES buffer pH 7.6): 54 pN
- differential binding force (F2-F1) ([4]; increase over DNA alone): 14 pN

- differential binding force (F2-F1) [1]: 14 pN
- binding force of DNA with drug [1]: 73 pN
SMILES: CC(=O)NCC(=O)O.CC(=O)NCC(=O)O.N=C(N)c1ccc(N=NNc2ccc(C(=N)N)cc2)cc1 [berenil]

Reference: patent US20170234860A1, “SEQUENCE AND CHIRAL SELECTIVITY OF DNA-DRUG INTERACTIONS REVEALED BY FORCE SPECTROSCOPY” (UNIVERSITY OF HOUSTON SYSTEM, priority 2014, published 2017)
